For orientation: Kd means a measure of binding affinity in units of concentration. Read a high Kd as lower affinity. The term IC50 denotes the concentration that gives 50% inhibition.

In data set [1] the test system is expanded MJD CAG78 RNA. Kind of data set: Isothermal titration calorimetry binding assay, expanded CAG RNA. As to the method: (§1) Experiments were carried out using a MicroCal iTC200 isothermal titration calorimeter (GE Healthcare) at 25 °C. Data were analyzed using the Origin® scientific plotting software version 7 (Microcal Software Inc.). All RNAs and peptides were dissolved in binding buffer (20 mM MOPS, pH 7.0; 300 mM NaCl) and 0.7 mM of peptide was titrated into 0.5 µM of RNA for each experiment. The concentration of RNA was estimated with appropriate extinction coefficients at 260 nm on a Nanodrop 2000 (Thermo Scientific). A reference power of 8 μcal/s was used with an initial 0.5 µl of injection of peptide followed by 2 µl for all subsequent titrations points with a 60 sec initial equilibrium delay and 150 sec pause between injections. The samples were stirred at a speed of 1000 rpm throughout the experiment. The thermal titration data were fitted to the ‘one binding site model’ to determine the dissociation constant (KD). Each experiment was repeated at least 3 times with consistent results obtained.
Background: Isothermal titration calorimetry measures the heat released or taken up as one component is titrated into another.

Data set [2] concerns the target MJD CAG27 RNA. Briefly: Isothermal titration calorimetry binding assay, unexpanded CAG RNA. Particulars: ITC. The protocol:
as §1

The target of data set [3] is MJD CAA/G78 RNA. Briefly: Isothermal titration calorimetry binding assay, expanded CAA/G RNA. The note with it: ITC; 0.7 mM P3V8 titrated into 0.5 µM MJD CAA/G78 RNA; one binding site model; mean ± S.E.M., at least 3 independent experiments. The protocol: as §1
The test system of data set [4] is EGFP CAG78 RNA-expressing HEK293 cells. It counts as cell-based. The note with it: for suppression of expanded CAG RNA-induced cell death: LDH assay. The protocol:
(§2) HEK293 cells were cultured at 37 °C with 5% CO2 in DMEM supplemented with 10% FBS and 1% penicillin-streptomycin. Primary rat cortical neurons were isolated and cultured as previously described. Transient transfection of HEK293 cells was performed using Lipofectamine 2000 (Life Technologies). P3V8 were delivered to HEK293 cells using the DeliverX (DX) Peptide Transfection Kit (Affymetrix) 4 hr after DNA transfection. At least two batches of independently synthesized peptides were used in the experiments.
HEK 293 cells were seeded on a 24-well plate at a density of 0.5 × 10^5, and pEGFP CAG78 DNA construct was used to transfect the cells. […] […] Seventy-two hours after treatment, LDH enzyme activity in the cell culture medium was measured as described before. Experimental groups were normalized to the untransfected control. After normalization, data were analyzed using the dose response-inhibition curve (nonlinear regression-variable slope) to determine the IC50 value (Prism6 software, GraphPad Software, Inc.). Each experiment was repeated at least 3 times.

Data set [5] deals with DsRed CAG100 Drosophila. Briefly: Pseudopupil assay of retinal degeneration. It counts as in vivo. The note with it: 1 µM peptide fed to third instar larvae for 2 hr in 2% sucrose; 12 day-old adult flies; mean ± S.E.M. The protocol:
(§3) Flies were raised at 21.5 °C on cornmeal medium supplemented with dry yeast. Fly lines bearing UAS-DsRed CAG0 and UAS-DsRed CAG100 were kind gifts of Professor Nancy Bonini (University of Pennsylvania, USA). The gmr-GAL4 fly line was obtained from Bloomington Drosophila Stock Center. For pseudopupil assay, third instar larvae were fed with various amount of respective peptides dissolved in 2% sucrose solution for 2 hr and then continued to culture in standard fly food at 21.5 °C[38]. Pseudopupil assay was performed on 12 day-old adult flies as mentioned previously. Images were captured by SPOT Insight CCD camera controlled by the SPOT Advanced software (Diagnostic instruments Inc.). Image processing was performed using the Adobe Photoshop CS software (Adobe). Each experiment was repeated at least 3 times (n = 10 fly heads), and consistent results were obtained. For viability test of wild-type flies from egg to adult stage, eggs born within 5 hr were collected and cultured in fly food containing 10 or 50 μM of respective peptides at 21.5°C. Viability from egg-to-adult was calculated as the number of adult flies collected divided by the number of eggs examined. Each experiment was repeated for three times (at least 130 eggs were examined in each group). Two batches of independently synthesized peptides were used in the experiments.

Data set [6] deals with pre-rRNA in DsRed CAG100 flies. Kind of data set: Real-time PCR of pre-rRNA level in fly heads. It counts as in vivo, Drosophila. The note with it: 1 μM peptide, 12 day-old adult fly heads. As to the method: (§4) RNA was extracted from cells or ten 12 day-old adult fly heads by Trizol reagent (Life Technologies), and 1 μg of purified RNA was then used for reverse-transcription using the ImPromII™ Reverse Transcription System (Promega). Random hexamer (Roche) was used as primers in reverse transcription. Taqman gene expression assays were performed on an ABI 7500 Real-time PCR system and data were analyzed as previously described. The following probes were used: pre-45s rRNA (Assay ID: AILJIZM), pre-rRNA (Assay ID: AIMSG5U), Drosophila GAPDH (Assay ID: Dm01841186) and human actin (Assay ID: Hs99999903_m1). Each experiment was repeated at least 3 times.
For orientation: In qPCR the cycle at which signal appears reflects the starting amount.

The subject of data set [7] is pre-45s rRNA in EGFP CAG78 RNA-expressing HEK293 cells. Kind of data set: Real-time PCR of pre-45s rRNA level in cells. It counts as cell-based. The note with it: peptide transfected with DeliverX. As to the method: as §2, §4
The subject of data set [8] is wild type Drosophila. Briefly: Egg-to-adult viability of wild type flies. It counts as in vivo. The note with it: fly food containing 10 or 50 µM peptide, 21.5 °C; 3 independent experiments. As to the method: as §3, with “For viability test of wild-type flies from egg to adult stage, eggs born within 5 hr were collected and cultured in fly food containing 10 or 50 μM of respective peptides at 21.5°C.” left out, “Each experiment was repeated for three times (at least 130 eggs were examined in each group). Two batches of independently synthesized peptides were used in the experiments.” left out
viability of wild type Drosophila from egg to adult. […] Viability from egg to adult was calculated as the number of adult flies collected divided by the number of eggs examined. Data are expressed as mean ± S.E.M. for 3 independent experiments. […]

“Also recorded” adds a separate entry of the source. Where two headings read alike, the source gives them in different places. Residues, ends and D or L forms follow the SMILES beside them. *: point of attachment. Palmitoyl = CCCCCCCCCCCCCCCC(=O)*

For Ac-DGKSKGIAYIEFK-NH2 [P3V8], in data set [1] (ITC KD relative to P3), the “improvement of binding affinity for expanded CAG RNA over P3” value was “more than 20 fold”. Moreover, the Kd is 0.33 ± 0.04 µM in data set [1] (ITC, 25 °C, 20 mM MOPS pH 7.0, 300 mM NaCl, 0.7 mM peptide titrated into 0.5 µM MJD CAG78 RNA, one binding site model, mean ± S.E.M., at least 3 independent experiments); 2.19 ± 0.27 µM in data set [2] (0.7 mM P3V8 titrated into 0.5 µM MJD CAG27 RNA, one binding site model, mean ± S.E.M., at least 3 independent experiments); 2.94 ± 0.96 µM in data set [3]. The “lower affinity for unexpanded RNA or expanded CAA/G RNA than for expanded CAG RNA” value in data set [2] (MJD CAG27 RNA or MJD CAA/G78 RNA versus MJD CAG78 RNA) was 6–9 fold. For the same compound, the “suppression of expanded CAG RNA-induced cell death” value in data set [4] (peptide alone, without DeliverX) was “did not exert any cellular effect”; in data set [4] (peptide transfected with DeliverX 4 hr after plasmid transfection) it was “could effectively alleviate the cytotoxicity”. Moreover, in data set [5], the pseudopupil score was 4.32 ± 0.25. Further, the pre-rRNA level result in data set [6] is on record as “fully recovered to the DsRed CAG0 control level”. Moreover, the “restoration of pre-45s rRNA level” value in data set [7] is “dose-dependent restoration”.

In the case of `CCCCCCCCCCCCCCCC(=O)N[C@@H](CC(=O)O)C(=O)NCC(=O)N[C@@H](CCCCN)C(=O)N[C@@H](CO)C(=O)N[C@@H](CCCCN)C(=O)NCC(=O)N[C@H](C(=O)N[C@@H](C)C(=O)N[C@@H](Cc1ccc(O)cc1)C(=O)N[C@H](C(=O)N[C@@H](CCC(=O)O)C(=O)N[C@@H](Cc1ccccc1)C(=O)N[C@@H](CCCCN)C(N)=O)[C@@H](C)CC)[C@@H](C)CC` [L1P3V8] (Palmitoyl-DGKSKGIAYIEFK-NH2), the IC50 in data set [4] (read-out: IC50, inhibition of cell death (LDH enzyme activity reduced by 50%), peptide added without DeliverX immediately after plasmid transfection, LDH 72 hr after treatment, mean ± S.E.M., at least 3 experiments) is about 0.1 µM. Besides, the egg-to-adult viability result in data set [8] was “did not affect; also recorded: no obvious alteration”.

(Values after article PMC5608758, “A brain-targeting lipidated peptide for neutralizing RNA-mediated toxicity in Polyglutamine Diseases” (Scientific Reports, 2017).)
